The source of these data is ChEMBL document CHEMBL1147715, “Gatifloxacin derivatives: synthesis, antimycobacterial activities, and inhibition of Mycobacterium tuberculosis DNA gyrase” (Bioorg Med Chem Lett, 2006).

≈ marks a conversion by molar mass, not a printed value.

This experiment has as its system Mycobacterium tuberculosis. Put plainly: Antimycobacterial activity against multi-drug resistant Mycobacterium tuberculosis. Type of experiment: functional.
Usually MIC stands for the smallest concentration in the dilution series that meets the test's criterion for growth inhibition. Lower therefore signals a more susceptible organism. As to `COc1c(N2CCN(Cn3c(O)c(/N=N/C(N)=O)c4ccccc43)C(C)C2)c(F)cc2c(=O)c(C(=O)O)cn(C3CC3)c12` (configuration not stated), the MIC worked out at 0.05 mg/L (≈ 0.0845 µM). The result for `COc1c(N2CCN(Cn3c(O)c(/N=N/C(=N)S)c4cc(Cl)ccc43)C(C)C2)c(F)cc2c(=O)c(C(=O)O)cn(C3CC3)c12` (configuration not stated) reads 0.78 mg/L (≈ 1.21 µM).

With `COc1c(N2CCN(CN3C(=O)/C(=N\c4ccc(S(=O)(=O)Nc5ncccn5)cc4)c4cc(Cl)ccc43)C(C)C2)c(F)cc2c(=O)c(C(=O)O)cn(C3CC3)c12` (configuration not stated), the MIC amounted to 0.1 mg/L (≈ 0.125 µM). The same measure for `COc1c(N2CCN(Cn3c(O)c(/N=N/C(=N)S)c4ccccc43)C(C)C2)c(F)cc2c(=O)c(C(=O)O)cn(C3CC3)c12` (configuration not stated): 0.2 mg/L (≈ 0.329 µM); for `COc1c(N2CCN(CN3C(=O)/C(=N\c4ccc(S(=O)(=O)Nc5ncccn5)cc4)c4ccccc43)C(C)C2)c(F)cc2c(=O)c(C(=O)O)cn(C3CC3)c12` (configuration not stated): 0.1 mg/L (≈ 0.13 µM). The molecule `COc1c(N2CCN(Cn3c(O)c(/N=N/C(N)=O)c4cc(Cl)ccc43)C(C)C2)c(F)cc2c(=O)c(C(=O)O)cn(C3CC3)c12` (configuration not stated) showed an MIC of 0.78 mg/L (≈ 1.25 µM). Against the preceding molecule, the MIC is about 7.8-fold higher.

For `COc1c(N2CCN(Cn3c(O)c(/N=N/C(=O)c4ccncc4)c4cc(F)ccc43)C(C)C2)c(F)cc2c(=O)c(C(=O)O)cn(C3CC3)c12` (configuration not stated), the MIC is 0.78 mg/L (≈ 1.16 µM). The result for `COc1c(N2CCN(Cn3c(O)c(/N=N/C(=O)c4ccncc4)c4cc(C)ccc43)C(C)C2)c(F)cc2c(=O)c(C(=O)O)cn(C3CC3)c12` (configuration not stated) reads 0.78 mg/L (≈ 1.17 µM). The same measure for `COc1c(N2CCN(CN3C(=O)/C(=N\c4ccc(S(=O)(=O)Nc5ncccn5)cc4)c4cc(C)ccc43)C(C)C2)c(F)cc2c(=O)c(C(=O)O)cn(C3CC3)c12` (configuration not stated): 0.78 mg/L (≈ 0.999 µM); for `COc1c(N2CCN(Cn3c(O)c(/N=N/C(=N)S)c4cc(C)ccc43)C(C)C2)c(F)cc2c(=O)c(C(=O)O)cn(C3CC3)c12` (configuration not stated): 0.78 mg/L (≈ 1.25 µM). Molecule `COc1c(N2CCN(CN3C(=O)/C(=N\c4ccc(S(=O)(=O)Nc5ncccn5)cc4)c4cc(F)ccc43)C(C)C2)c(F)cc2c(=O)c(C(=O)O)cn(C3CC3)c12` (configuration not stated) returned an MIC of 0.1 mg/L (≈ 0.127 µM). The same measure for `COc1c(N2CCN(Cn3c(O)c(/N=N/C(=O)c4ccncc4)c4ccccc43)C(C)C2)c(F)cc2c(=O)c(C(=O)O)cn(C3CC3)c12` (configuration not stated): 0.2 mg/L (≈ 0.306 µM); for `COc1c(N2CCN(Cn3c(O)c(/N=N/C(=N)S)c4cc(F)ccc43)C(C)C2)c(F)cc2c(=O)c(C(=O)O)cn(C3CC3)c12` (configuration not stated): 0.1 mg/L (≈ 0.16 µM); for `COc1c(N2CCN(Cn3c(O)c(/N=N/C(N)=O)c4cc(F)ccc43)C(C)C2)c(F)cc2c(=O)c(C(=O)O)cn(C3CC3)c12` (configuration not stated): 0.2 mg/L (≈ 0.328 µM).

Consider `COc1c(N2CCN(Cn3c(O)c(/N=N/C(N)=O)c4cc(C)ccc43)C(C)C2)c(F)cc2c(=O)c(C(=O)O)cn(C3CC3)c12` (configuration not stated), for which the MIC stood at 0.78 mg/L (≈ 1.29 µM). Compared with the last molecule, the MIC is about 3.9-fold higher. The same measure for `COc1c(N2CCN(Cn3c(O)c(/N=N/C(=O)c4ccncc4)c4cc(Cl)ccc43)C(C)C2)c(F)cc2c(=O)c(C(=O)O)cn(C3CC3)c12` (configuration not stated): 0.78 mg/L (≈ 1.13 µM); for `COc1c(N2CCNC(C)C2)c(F)cc2c(=O)c(C(=O)O)cn(C3CC3)c12` (configuration not stated) [GATIFLOXACIN]: 3.12 mg/L (≈ 8.31 µM).
